Results from PMC6978363, “Chaperone mediated detection of small molecule target binding in cells” (Nature Communications, 2020).

How the values were obtained:
Test in all cases: biochemical
Conditions in all cases: read-out: % Inhibition (at 10mM)
PKD1 = target: T1, PKD1 (Homo sapiens, UniProt Q15139)
T1 construct: gene PRKD1

CLK1 = CLK1 (Homo sapiens, UniProt P49759)
SBK1 = SBK1 (Homo sapiens, UniProt Q52WX2)
PKG2 = target: T2, PKG2 (Homo sapiens, UniProt Q13237)
T2 construct: gene PRKG2

PRKAA1_B2_G3 = target: T3, PRKAA1_B2_G3 (Homo sapiens, UniProt Q13131)
T3 construct: gene PRKAA1

PIM1 = PIM1 (Homo sapiens, UniProt P11309)
Blk = Blk (Homo sapiens, UniProt P51451)
DCAMKL2 = target: T4, DCAMKL2 (Homo sapiens, UniProt Q8N568)
T4 construct: gene DCLK2

DYRK3 = DYRK3 (Homo sapiens, UniProt O43781)
PDGFR_alpha = target: T5, PDGFR_alpha (Homo sapiens, UniProt P16234)
T5 construct: gene PDGFRA

PRKAA2_B1_G3 = target: T6, PRKAA2_B1_G3 (Homo sapiens, UniProt P54646)
T6 construct: gene PRKAA2

CaMKI_delta = target: T7, CaMKI_delta (Homo sapiens, UniProt Q8IU85)
T7 construct: gene CAMK1D

SRPK2 = SRPK2 (Homo sapiens, UniProt P78362)
MSK1 = target: T8, MSK1 (Homo sapiens, UniProt O75582)
T8 construct: gene RPS6KA5

MKNK1 = MKNK1 (Homo sapiens, UniProt Q9BUB5)
PRK1 = target: T9, PRK1 (Homo sapiens, UniProt Q16512)
T9 construct: gene PKN1

TXK = TXK (Homo sapiens, UniProt P42681)
IKK_epsilon = target: T10, IKK_epsilon (Homo sapiens, UniProt Q14164)
T10 construct: gene IKBKE

PAK6 = PAK6 (Homo sapiens, UniProt Q9NQU5)
CamKII_delta = target: T11, CamKII_delta (Homo sapiens, UniProt Q13557)
T11 construct: gene CAMK2D

CDK2/cyclinA = CDK2/cyclinA (Homo sapiens, UniProt P24941)
PKD3 = target: T12, PKD3 (Homo sapiens, UniProt O94806)
T12 construct: gene PRKD3

MLK1 = target: T13, MLK1 (Homo sapiens, UniProt P80192)
T13 construct: gene MAP3K9

ACVR1B = ACVR1B (Homo sapiens, UniProt P36896)
PLK3 = PLK3 (Homo sapiens, UniProt Q9H4B4)
SIK2 = SIK2 (Homo sapiens, UniProt Q9H0K1)
BTK = BTK (Homo sapiens, UniProt Q06187)
EphB3 = EphB3 (Homo sapiens, UniProt P54753)
IRR = target: T14, IRR (Homo sapiens, UniProt P14616)
T14 construct: gene INSRR

Ron = target: T15, Ron (Homo sapiens, UniProt Q04912)
T15 construct: gene MST1R

PCTK3 = target: T16, PCTK3 (Homo sapiens, UniProt Q07002)
T16 construct: gene CDK18

PAK7 = target: T17, PAK7 (Homo sapiens, UniProt Q9P286)
T17 construct: gene PAK5

Tie2 = target: T18, Tie2 (Homo sapiens, UniProt Q02763)
T18 construct: gene TEK

MST3 = target: T19, MST3 (Homo sapiens, UniProt Q9Y6E0)
T19 construct: gene STK24

FGFR3 = FGFR3 (Homo sapiens, UniProt P22607)
TSSK1 = target: T20, TSSK1 (Homo sapiens, UniProt Q9BXA7)
T20 construct: gene TSSK1B

MSK2 = target: T21, MSK2 (Homo sapiens, UniProt O75676)
T21 construct: gene RPS6KA4

T10 sequence (Q14164 whole entry): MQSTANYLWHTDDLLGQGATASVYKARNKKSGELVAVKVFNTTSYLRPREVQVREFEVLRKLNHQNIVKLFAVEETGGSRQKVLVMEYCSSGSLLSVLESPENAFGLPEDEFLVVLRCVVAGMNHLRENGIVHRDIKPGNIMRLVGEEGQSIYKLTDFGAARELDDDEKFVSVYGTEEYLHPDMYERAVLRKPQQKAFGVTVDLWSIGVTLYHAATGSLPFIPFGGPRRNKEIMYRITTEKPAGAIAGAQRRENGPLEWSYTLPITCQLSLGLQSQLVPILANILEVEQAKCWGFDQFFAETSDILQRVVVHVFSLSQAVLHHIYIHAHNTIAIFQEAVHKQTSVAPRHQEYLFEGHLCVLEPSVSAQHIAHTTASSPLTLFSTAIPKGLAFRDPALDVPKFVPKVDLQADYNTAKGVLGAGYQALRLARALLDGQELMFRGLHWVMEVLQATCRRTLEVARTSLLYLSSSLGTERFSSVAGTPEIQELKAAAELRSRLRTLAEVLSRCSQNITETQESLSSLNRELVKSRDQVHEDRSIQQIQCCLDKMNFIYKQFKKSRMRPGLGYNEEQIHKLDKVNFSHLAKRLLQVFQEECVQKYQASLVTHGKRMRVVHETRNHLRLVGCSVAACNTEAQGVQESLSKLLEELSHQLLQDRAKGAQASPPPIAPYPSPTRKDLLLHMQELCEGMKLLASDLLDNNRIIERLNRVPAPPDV
T9 sequence (Q16512 whole entry): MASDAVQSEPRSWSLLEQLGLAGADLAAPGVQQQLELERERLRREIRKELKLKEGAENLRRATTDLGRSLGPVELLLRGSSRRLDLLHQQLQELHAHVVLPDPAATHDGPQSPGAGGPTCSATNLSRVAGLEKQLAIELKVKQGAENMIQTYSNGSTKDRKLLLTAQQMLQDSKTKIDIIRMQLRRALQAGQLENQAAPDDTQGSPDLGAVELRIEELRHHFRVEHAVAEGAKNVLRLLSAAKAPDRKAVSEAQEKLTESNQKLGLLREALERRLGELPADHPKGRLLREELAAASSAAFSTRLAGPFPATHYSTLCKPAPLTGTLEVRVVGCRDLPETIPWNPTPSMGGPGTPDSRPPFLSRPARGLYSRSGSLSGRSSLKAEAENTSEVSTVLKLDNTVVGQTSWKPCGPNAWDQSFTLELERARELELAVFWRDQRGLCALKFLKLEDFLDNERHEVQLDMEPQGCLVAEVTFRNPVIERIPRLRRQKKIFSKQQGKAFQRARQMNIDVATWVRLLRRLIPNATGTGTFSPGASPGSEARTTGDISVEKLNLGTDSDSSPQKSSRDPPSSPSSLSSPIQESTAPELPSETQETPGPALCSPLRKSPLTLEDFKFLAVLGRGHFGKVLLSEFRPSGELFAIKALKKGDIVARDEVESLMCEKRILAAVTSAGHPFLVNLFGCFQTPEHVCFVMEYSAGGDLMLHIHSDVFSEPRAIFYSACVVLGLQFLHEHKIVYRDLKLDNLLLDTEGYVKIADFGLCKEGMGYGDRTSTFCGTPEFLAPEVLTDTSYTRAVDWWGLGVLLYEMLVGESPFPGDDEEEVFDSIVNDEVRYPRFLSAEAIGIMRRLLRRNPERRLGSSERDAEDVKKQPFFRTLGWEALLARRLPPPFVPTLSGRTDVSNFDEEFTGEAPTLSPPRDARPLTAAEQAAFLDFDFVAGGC
T1 sequence (Q15139 whole entry): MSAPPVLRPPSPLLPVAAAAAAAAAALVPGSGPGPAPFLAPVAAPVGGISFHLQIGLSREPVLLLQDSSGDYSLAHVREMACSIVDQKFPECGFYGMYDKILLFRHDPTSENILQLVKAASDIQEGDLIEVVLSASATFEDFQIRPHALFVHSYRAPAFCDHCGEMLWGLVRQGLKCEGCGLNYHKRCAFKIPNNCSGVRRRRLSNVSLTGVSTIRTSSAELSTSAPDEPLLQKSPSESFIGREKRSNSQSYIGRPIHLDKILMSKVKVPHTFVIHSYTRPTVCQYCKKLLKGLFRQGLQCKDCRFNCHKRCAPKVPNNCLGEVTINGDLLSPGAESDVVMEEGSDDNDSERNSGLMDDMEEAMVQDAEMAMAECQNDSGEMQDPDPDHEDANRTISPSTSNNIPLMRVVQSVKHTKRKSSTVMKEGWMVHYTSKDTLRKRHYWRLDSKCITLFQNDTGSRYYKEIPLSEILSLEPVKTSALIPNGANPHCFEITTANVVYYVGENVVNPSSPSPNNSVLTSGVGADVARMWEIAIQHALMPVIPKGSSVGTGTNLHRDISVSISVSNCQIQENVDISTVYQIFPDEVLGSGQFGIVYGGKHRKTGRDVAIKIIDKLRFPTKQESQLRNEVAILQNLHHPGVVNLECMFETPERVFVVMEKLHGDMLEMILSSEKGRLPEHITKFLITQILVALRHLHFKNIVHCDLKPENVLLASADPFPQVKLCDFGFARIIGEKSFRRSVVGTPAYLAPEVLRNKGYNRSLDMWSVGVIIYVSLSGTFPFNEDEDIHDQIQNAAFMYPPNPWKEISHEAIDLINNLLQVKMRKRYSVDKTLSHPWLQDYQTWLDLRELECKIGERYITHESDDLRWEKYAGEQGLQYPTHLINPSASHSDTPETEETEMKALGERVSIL
T12 sequence (O94806 whole entry): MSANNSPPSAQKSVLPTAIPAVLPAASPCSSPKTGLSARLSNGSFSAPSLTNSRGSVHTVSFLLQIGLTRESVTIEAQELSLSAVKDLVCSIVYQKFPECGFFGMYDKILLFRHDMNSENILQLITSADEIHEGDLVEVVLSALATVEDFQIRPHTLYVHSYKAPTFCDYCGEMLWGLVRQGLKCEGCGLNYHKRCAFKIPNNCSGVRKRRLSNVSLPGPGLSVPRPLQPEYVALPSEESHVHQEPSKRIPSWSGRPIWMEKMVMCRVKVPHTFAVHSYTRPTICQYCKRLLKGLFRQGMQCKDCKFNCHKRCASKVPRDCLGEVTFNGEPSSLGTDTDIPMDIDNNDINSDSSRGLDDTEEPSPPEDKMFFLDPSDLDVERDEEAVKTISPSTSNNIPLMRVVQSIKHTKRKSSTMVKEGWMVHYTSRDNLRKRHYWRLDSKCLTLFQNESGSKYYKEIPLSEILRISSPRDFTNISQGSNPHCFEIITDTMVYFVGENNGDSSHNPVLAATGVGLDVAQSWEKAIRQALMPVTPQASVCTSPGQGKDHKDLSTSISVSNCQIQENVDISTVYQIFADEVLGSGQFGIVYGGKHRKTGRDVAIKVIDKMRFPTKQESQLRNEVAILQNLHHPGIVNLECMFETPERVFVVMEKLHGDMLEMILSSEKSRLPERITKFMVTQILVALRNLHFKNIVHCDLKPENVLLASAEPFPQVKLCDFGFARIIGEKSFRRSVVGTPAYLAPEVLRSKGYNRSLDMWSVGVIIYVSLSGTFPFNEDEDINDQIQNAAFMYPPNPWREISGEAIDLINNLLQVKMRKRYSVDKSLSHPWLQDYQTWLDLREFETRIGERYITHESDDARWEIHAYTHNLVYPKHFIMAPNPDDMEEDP
T3 sequence (Q13131 whole entry): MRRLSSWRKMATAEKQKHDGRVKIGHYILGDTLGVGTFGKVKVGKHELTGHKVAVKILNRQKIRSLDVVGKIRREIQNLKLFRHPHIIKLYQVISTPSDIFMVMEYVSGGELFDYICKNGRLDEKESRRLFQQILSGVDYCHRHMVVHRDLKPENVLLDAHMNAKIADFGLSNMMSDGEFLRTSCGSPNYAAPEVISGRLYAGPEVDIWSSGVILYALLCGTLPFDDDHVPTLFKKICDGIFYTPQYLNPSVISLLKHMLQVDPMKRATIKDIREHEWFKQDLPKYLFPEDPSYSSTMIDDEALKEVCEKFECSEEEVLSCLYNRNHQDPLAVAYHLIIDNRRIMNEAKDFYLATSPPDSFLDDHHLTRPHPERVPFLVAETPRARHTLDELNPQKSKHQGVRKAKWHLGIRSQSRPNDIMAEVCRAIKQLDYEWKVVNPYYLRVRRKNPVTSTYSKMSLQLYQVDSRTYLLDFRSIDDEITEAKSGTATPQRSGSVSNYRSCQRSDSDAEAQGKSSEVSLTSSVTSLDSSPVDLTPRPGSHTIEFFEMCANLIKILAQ
T3 sequence (O43741 whole entry partner): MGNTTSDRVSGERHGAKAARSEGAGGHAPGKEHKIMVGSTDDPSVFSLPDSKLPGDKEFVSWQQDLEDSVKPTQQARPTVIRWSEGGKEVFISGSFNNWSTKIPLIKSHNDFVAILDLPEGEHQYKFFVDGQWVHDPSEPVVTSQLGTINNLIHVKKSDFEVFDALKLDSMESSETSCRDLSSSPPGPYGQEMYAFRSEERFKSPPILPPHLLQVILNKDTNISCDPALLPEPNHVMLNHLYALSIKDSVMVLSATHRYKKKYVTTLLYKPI
T3 sequence (Q9UGI9 whole entry partner): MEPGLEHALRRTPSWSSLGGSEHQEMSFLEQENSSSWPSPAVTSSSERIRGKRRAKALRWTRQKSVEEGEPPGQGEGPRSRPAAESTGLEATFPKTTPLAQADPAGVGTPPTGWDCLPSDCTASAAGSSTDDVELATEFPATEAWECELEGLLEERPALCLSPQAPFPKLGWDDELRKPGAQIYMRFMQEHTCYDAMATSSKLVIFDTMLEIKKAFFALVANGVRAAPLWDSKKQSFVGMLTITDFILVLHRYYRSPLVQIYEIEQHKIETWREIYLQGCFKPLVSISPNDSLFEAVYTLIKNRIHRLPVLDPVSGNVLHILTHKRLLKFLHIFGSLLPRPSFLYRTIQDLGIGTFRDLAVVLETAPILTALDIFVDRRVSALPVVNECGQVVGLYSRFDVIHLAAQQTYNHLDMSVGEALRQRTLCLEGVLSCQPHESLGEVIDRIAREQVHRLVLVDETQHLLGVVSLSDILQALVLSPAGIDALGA

## CC(C)(O)CC(=O)NCCn1ccc2ncnc(Nc3ccc(Oc4cccc(C(F)(F)F)c4)c(Cl)c3)c21 [TAK-285]
PKD1
  inhibition: 76%
CLK1
  inhibition: 10.5%
SBK1
  inhibition: 8.5%
PKG2
  inhibition: -11%
PRKAA1_B2_G3
  inhibition: 0.5%
PIM1
  inhibition: 5.5%
Blk
  inhibition: 25%
DCAMKL2
  inhibition: -9.5%
DYRK3
  inhibition: -0.5%
PDGFR_alpha
  inhibition: 1.5%
PRKAA2_B1_G3
  inhibition: 4%
CaMKI_delta
  inhibition: 0%
SRPK2
  inhibition: 2.5%
MSK1
  inhibition: 2.5%
MKNK1
  inhibition: 6%
PRK1
  inhibition: -7%
TXK
  inhibition: 15%
IKK_epsilon
  inhibition: 5.5%
PAK6
  inhibition: 5.5%
CamKII_delta
  inhibition: 6%
CDK2/cyclinA
  inhibition: 4.5%
PKD3
  inhibition: 31.5%
MLK1
  inhibition: 6.5%
ACVR1B
  inhibition: -5%
PLK3
  inhibition: -8.5%
SIK2
  inhibition: 9.5%
BTK
  inhibition: 36%
EphB3
  inhibition: 6.5%
IRR
  inhibition: 6.5%
Ron
  inhibition: 28%
PCTK3
  inhibition: 6%
PAK7
  inhibition: 5.5%
Tie2
  inhibition: -6%
MST3
  inhibition: 7%
FGFR3
  inhibition: -6%
TSSK1
  inhibition: -6.5%
MSK2
  inhibition: 9.5%
